Results from patent US20190284136A1, “INDOLINE DERIVATIVES” (ViiV HEALTHCARE UK LIMITED, priority 2016, published 2019).

system: HIV; experiment: Table 1 IC50 of the examples (assay method not given; patent concerns inhibiting HIV replication); format: cell-based; details: Human immunodeficiency virus 1

Which IC50 does the source give for `COc1cc(OC)cc(C(=O)N2CCc3c2cc(C)c([C@H](OC(C)(C)C)C(=O)O)c3-c2cc(F)c3c(c2C)CCCO3)c1` (atropisomer, axis not shown) [Example 63, (S)-2-(tert-Butoxy)-2-((R)-1-(3,5-dimethoxybenzoyl)-4-(8-fluoro-5-methylchroman-6-yl)-6-methylindolin-5-yl)acetic acid] here?
The IC50 was 4 nM.

How did the IC50 turn out when `Cc1cc2c(c(-c3cc(F)c4c(c3C)CCCO4)c1[C@H](OC(C)(C)C)C(=O)O)CCN2C(=O)c1ccc(F)cc1C(F)(F)F` (atropisomer, axis not shown) [Example 64, (S)-2-(tert-Butoxy)-2-((R)-1-(4-fluoro-2-(trifluoromethyl)benzoyl)-4-(8-fluoro-5-methylchroman-6-yl)-6-methylindolin-5-yl)acetic acid] was run?
The IC50 was 5 nM.

Which IC50 does the source give for `Cc1cc2c(c(-c3cc(F)c4c(c3C)CCCO4)c1[C@H](OC(C)(C)C)C(=O)O)CCN2C(=O)C1CCOCC1` (atropisomer, axis not shown) [Example 65, (S)-2-(tert-Butoxy)-2-((R)-4-(8-fluoro-5-methylchroman-6-yl)-6-methyl-1-(tetrahydro-2H-pyran-4-carbonyl)indolin-5-yl)acetic acid] here?
Its IC50 is 378 nM.

Which IC50 does the source give for `Cc1cc2c(c(-c3cc(F)c4c(c3C)CCCO4)c1[C@H](OC(C)(C)C)C(=O)O)CCN2C(=O)c1cccc(Cl)c1C` (atropisomer, axis not shown) [Example 66, (S)-2-(tert-Butoxy)-2-((R)-1-(3-chloro-2-methylbenzoyl)-4-(8-fluoro-5-methylchroman-6-yl)-6-methylindolin-5-yl)acetic acid] here?
The IC50 was 6 nM.

For `COc1cccc(C(=O)N2CCc3c2cc(C)c([C@H](OC(C)(C)C)C(=O)O)c3-c2cc(F)c3c(c2C)CCCO3)c1C` (atropisomer, axis not shown) [Example 67, (S)-2-(tert-Butoxy)-2-((R)-4-(8-fluoro-5-methylchroman-6-yl)-1-(3-methoxy-2-methylbenzoyl)-6-methylindolin-5-yl)acetic acid], which IC50 is on record?
The IC50 was 5 nM.

Which IC50 does the source give for `Cc1cc2c(c(-c3cc(F)c4c(c3C)CCCO4)c1[C@H](OC(C)(C)C)C(=O)O)CCN2C(=O)c1cc(Cl)ccc1Cl` (atropisomer, axis not shown) [Example 68, (S)-2-(tert-Butoxy)-2-((R)-1-(2,5-dichlorobenzoyl)-4-(8-fluoro-5-methylchroman-6-yl)-6-methylindolin-5-yl)acetic acid] here?
Its IC50 is 13 nM.

With `Cc1ccc(C)c(C(=O)N2CCc3c2cc(C)c([C@H](OC(C)(C)C)C(=O)O)c3-c2cc(F)c3c(c2C)CCCO3)c1` (atropisomer, axis not shown) [Example 69, (S)-2-(tert-Butoxy)-2-((R)-1-(2,5-dimethylbenzoyl)-4-(8-fluoro-5-methylchroman-6-yl)-6-methylindolin-5-yl)acetic acid] as the compound, how does the IC50 read?
The IC50 was 5 nM.

`Cc1cc2c(c(-c3cc(F)c4c(c3C)CCCO4)c1[C@H](OC(C)(C)C)C(=O)O)CCN2C(=O)c1ccc(Cl)cc1Cl` (atropisomer, axis not shown) [Example 70, (S)-2-(tert-Butoxy)-2-((R)-1-(2,4-dichlorobenzoyl)-4-(8-fluoro-5-methylchroman-6-yl)-6-methylindolin-5-yl)acetic acid] was tested. Which IC50 did it give?
The IC50 was 5 nM.

Which IC50 does the source give for `COc1cc(Cl)ccc1C(=O)N1CCc2c1cc(C)c([C@H](OC(C)(C)C)C(=O)O)c2-c1cc(F)c2c(c1C)CCCO2` (atropisomer, axis not shown) [Example 72, (S)-2-(tert-Butoxy)-2-((R)-1-(4-chloro-2-methoxybenzoyl)-4-(8-fluoro-5-methylchroman-6-yl)-6-methylindolin-5-yl)acetic acid] here?
The IC50 was 7 nM.

How did the IC50 turn out when `Cc1ccc(C(=O)N2CCc3c2cc(C)c([C@H](OC(C)(C)C)C(=O)O)c3-c2cc(F)c3c(c2C)CCCO3)cc1F` (atropisomer, axis not shown) [Example 73, (S)-2-(tert-Butoxy)-2-((R)-1-(3-fluoro-4-methylbenzoyl)-4-(8-fluoro-5-methylchroman-6-yl)-6-methylindolin-5-yl)acetic acid] was run?
The IC50 was 6 nM.

For `COc1ccc(C(=O)N2CCc3c2cc(C)c([C@H](OC(C)(C)C)C(=O)O)c3-c2cc(F)c3c(c2C)CCCO3)cc1F` (atropisomer, axis not shown) [Example 74, (S)-2-(tert-butoxy)-2-((R)-1-(3-fluoro-4-methoxybenzoyl)-4-(8-fluoro-5-methylchroman-6-yl)-6-methylindolin-5-yl)acetic acid], which IC50 is on record?
Its IC50 is 5 nM.

With `COc1c(Cl)cccc1C(=O)N1CCc2c1cc(C)c([C@H](OC(C)(C)C)C(=O)O)c2-c1cc(F)c2c(c1C)CCCO2` (atropisomer, axis not shown) [Example 75, (S)-2-(tert-Butoxy)-2-((R)-1-(3-chloro-2-methoxybenzoyl)-4-(8-fluoro-5-methylchroman-6-yl)-6-methylindolin-5-yl)acetic acid] as the compound, how does the IC50 read?
Its IC50 is 6.61 nM.

Which IC50 does the source give for `Cc1cc2c(c(-c3cc(F)c4c(c3C)CCCO4)c1[C@H](OC(C)(C)C)C(=O)O)CCN2C(=O)c1cncc(F)c1` (atropisomer, axis not shown) [Example 76, (S)-2-(tert-Butoxy)-2-((R)-4-(8-fluoro-5-methylchroman-6-yl)-1-(5-fluoronicotinoyl)-6-methylindolin-5-yl)acetic acid] here?
The IC50 was 15 nM.

`Cc1cc(C)cc(C(=O)N2CCc3c2cc(C)c([C@H](OC(C)(C)C)C(=O)O)c3-c2cc(F)c3c(c2C)CCCO3)c1` (atropisomer, axis not shown) [Example 77, (S)-2-(tert-Butoxy)-2-((R)-1-(3,5-dimethylbenzoyl)-4-(8-fluoro-5-methylchroman-6-yl)-6-methylindolin-5-yl)acetic acid] was tested. Which IC50 did it give?
Its IC50 is 5 nM.

With `CC(=O)Nc1cccc(C(=O)N2CCc3c2cc(C)c([C@H](OC(C)(C)C)C(=O)O)c3-c2cc(F)c3c(c2C)CCCO3)c1` (atropisomer, axis not shown) [Example 78, (S)-2-((R)-1-(3-Acetamidobenzoyl)-4-(8-fluoro-5-methylchroman-6-yl)-6-methylindolin-5-yl)-2-(tert-butoxy)acetic acid] as the compound, how does the IC50 read?
The IC50 was 310 nM.

With `COc1cccc(OC)c1C(=O)N1CCc2c1cc(C)c([C@H](OC(C)(C)C)C(=O)O)c2-c1cc(F)c2c(c1C)CCCO2` (atropisomer, axis not shown) [Example 79, (S)-2-(tert-Butoxy)-2-((R)-1-(2,6-dimethoxybenzoyl)-4-(8-fluoro-5-methylchroman-6-yl)-6-methylindolin-5-yl)acetic acid] as the compound, how does the IC50 read?
The IC50 was 55 nM.

Which IC50 does the source give for `Cc1ccc(F)cc1C(=O)N1CCc2c1cc(C)c([C@H](OC(C)(C)C)C(=O)O)c2-c1cc(F)c2c(c1C)CCCO2` (atropisomer, axis not shown) [Example 80, (S)-2-(tert-Butoxy)-2-((R)-1-(5-fluoro-2-methylbenzoyl)-4-(8-fluoro-5-methylchroman-6-yl)-6-methylindolin-5-yl)acetic acid] here?
The IC50 was 4 nM.

With `Cc1cncc(C(=O)N2CCc3c2cc(C)c([C@H](OC(C)(C)C)C(=O)O)c3-c2cc(F)c3c(c2C)CCCO3)c1` (atropisomer, axis not shown) [Example 81, (S)-2-(tert-Butoxy)-2-((R)-4-(8-fluoro-5-methylchroman-6-yl)-6-methyl-1-(5-methylnicotinoyl)indolin-5-yl)acetic acid] as the compound, how does the IC50 read?
Its IC50 is 14 nM.

With `Cc1cc2c(c(-c3cc(F)c4c(c3C)CCCO4)c1[C@H](OC(C)(C)C)C(=O)O)CCN2C(=O)c1cc(Cl)cc(Cl)c1` (atropisomer, axis not shown) [Example 82, (S)-2-(tert-Butoxy)-2-((R)-1-(3,5-dichlorobenzoyl)-4-(8-fluoro-5-methylchroman-6-yl)-6-methylindolin-5-yl)acetic acid] as the compound, how does the IC50 read?
The IC50 was 12 nM.

For `Cc1cc2c(c(-c3cc(F)c4c(c3C)CCCO4)c1[C@H](OC(C)(C)C)C(=O)O)CCN2C(=O)c1cccc2c1OCCO2` (atropisomer, axis not shown) [Example 83, (S)-2-(tert-Butoxy)-2-((R)-1-(2,3-dihydrobenzo[b][1,4]dioxine-5-carbonyl)-4-(8-fluoro-5-methylchroman-6-yl)-6-methylindolin-5-yl)acetic acid], which IC50 is on record?
Its IC50 is 7 nM.

For `COc1cccc(C(=O)N2CCc3c2cc(C)c([C@H](OC(C)(C)C)C(=O)O)c3-c2cc(F)c3c(c2C)CCCO3)c1OC` (atropisomer, axis not shown) [Example 84, (S)-2-(tert-Butoxy)-2-((R)-1-(2,3-dimethoxybenzoyl)-4-(8-fluoro-5-methylchroman-6-yl)-6-methylindolin-5-yl)acetic acid], which IC50 is on record?
The IC50 was 41 nM.

`COc1ccc(C(=O)N2CCc3c2cc(C)c([C@H](OC(C)(C)C)C(=O)O)c3-c2cc(F)c3c(c2C)CCCO3)c(F)c1` (atropisomer, axis not shown) [Example 85, (S)-2-(tert-Butoxy)-2-((R)-1-(2-fluoro-4-methoxybenzoyl)-4-(8-fluoro-5-methylchroman-6-yl)-6-methylindolin-5-yl)acetic acid] was tested. Which IC50 did it give?
Its IC50 is 6 nM.

Which IC50 does the source give for `COc1ccc(C(=O)N2CCc3c2cc(C)c([C@H](OC(C)(C)C)C(=O)O)c3-c2cc(F)c3c(c2C)CCCO3)cc1OC` (atropisomer, axis not shown) [Example 86, (S)-2-(tert-Butoxy)-2-((R)-1-(3,4-dimethoxybenzoyl)-4-(8-fluoro-5-methylchroman-6-yl)-6-methylindolin-5-yl)acetic acid] here?
Its IC50 is 5 nM.

Which IC50 does the source give for `COc1c(C)cccc1C(=O)N1CCc2c1cc(C)c([C@H](OC(C)(C)C)C(=O)O)c2-c1cc(F)c2c(c1C)CCCO2` (atropisomer, axis not shown) [Example 87, (S)-2-(tert-Butoxy)-2-((R)-4-(8-fluoro-5-methylchroman-6-yl)-1-(2-methoxy-3-methylbenzoyl)-6-methylindolin-5-yl)acetic acid] here?
The IC50 was 5 nM.

Which IC50 does the source give for `COc1ccc(C(=O)N2CCc3c2cc(C)c([C@H](OC(C)(C)C)C(=O)O)c3-c2cc(F)c3c(c2C)CCCO3)c(OC)c1` (atropisomer, axis not shown) [Example 88, (S)-2-(tert-Butoxy)-2-((R)-1-(2,4-dimethoxybenzoyl)-4-(8-fluoro-5-methylchroman-6-yl)-6-methylindolin-5-yl)acetic acid] here?
The IC50 was 5 nM.

With `COc1cc(C)cc(C(=O)N2CCc3c2cc(C)c([C@H](OC(C)(C)C)C(=O)O)c3-c2cc(F)c3c(c2C)CCCO3)c1` (atropisomer, axis not shown) [Example 89, (S)-2-(tert-Butoxy)-2-((R)-4-(8-fluoro-5-methylchroman-6-yl)-1-(3-methoxy-5-methylbenzoyl)-6-methylindolin-5-yl)acetic acid] as the compound, how does the IC50 read?
The IC50 was 3 nM.
